According to ChEMBL document CHEMBL3745662, “Preliminary investigation of 6,7-dihydropyrazolo[1,5-a]pyrazin-4-one derivatives as a novel series of mGlu5 receptor positive allosteric modulators with efficacy in preclinical models of schizophrenia” (Bioorg Med Chem Lett, 2016):

Tests used:
[1] = biological target: T1, Metabotropic glutamate receptor 5 (Homo sapiens, UniProt P41594); experiment: Positive allosteric modulation of human mGlu5 expressed in HEK293 cells assessed as glutamate-induced calcium mobilization; assay type: functional, cell-based
Target sequence in this assay (P41594 whole entry): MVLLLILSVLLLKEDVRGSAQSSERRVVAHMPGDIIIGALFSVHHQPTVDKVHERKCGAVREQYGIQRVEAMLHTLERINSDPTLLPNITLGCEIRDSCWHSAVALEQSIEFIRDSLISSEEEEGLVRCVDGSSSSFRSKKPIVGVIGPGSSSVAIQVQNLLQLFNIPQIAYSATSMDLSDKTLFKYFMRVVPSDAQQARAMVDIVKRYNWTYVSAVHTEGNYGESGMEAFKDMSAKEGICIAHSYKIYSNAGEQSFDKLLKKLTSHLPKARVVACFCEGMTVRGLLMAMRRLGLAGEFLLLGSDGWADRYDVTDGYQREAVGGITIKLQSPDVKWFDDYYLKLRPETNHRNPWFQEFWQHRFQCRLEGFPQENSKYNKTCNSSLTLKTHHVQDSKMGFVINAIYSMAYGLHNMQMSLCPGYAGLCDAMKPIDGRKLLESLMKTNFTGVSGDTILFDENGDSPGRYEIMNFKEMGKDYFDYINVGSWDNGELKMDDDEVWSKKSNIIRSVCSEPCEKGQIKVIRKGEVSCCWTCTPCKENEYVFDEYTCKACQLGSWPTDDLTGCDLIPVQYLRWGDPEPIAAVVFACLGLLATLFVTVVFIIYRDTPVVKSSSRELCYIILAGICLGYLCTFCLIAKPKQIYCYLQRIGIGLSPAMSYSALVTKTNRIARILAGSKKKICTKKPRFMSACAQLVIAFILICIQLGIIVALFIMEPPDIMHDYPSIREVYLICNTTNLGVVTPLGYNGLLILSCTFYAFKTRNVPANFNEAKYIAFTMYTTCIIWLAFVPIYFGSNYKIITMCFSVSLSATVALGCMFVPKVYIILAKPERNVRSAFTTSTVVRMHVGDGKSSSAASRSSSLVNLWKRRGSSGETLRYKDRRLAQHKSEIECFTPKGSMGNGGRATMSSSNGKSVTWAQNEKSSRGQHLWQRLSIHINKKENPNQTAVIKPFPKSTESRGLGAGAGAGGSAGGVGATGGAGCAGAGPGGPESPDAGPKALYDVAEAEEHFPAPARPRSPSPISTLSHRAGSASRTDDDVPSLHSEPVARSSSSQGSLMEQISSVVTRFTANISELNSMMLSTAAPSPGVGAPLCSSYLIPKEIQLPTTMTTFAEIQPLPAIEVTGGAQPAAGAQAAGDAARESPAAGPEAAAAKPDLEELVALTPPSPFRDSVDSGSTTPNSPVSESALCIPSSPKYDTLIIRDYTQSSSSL

[2] = biological target: T1, Metabotropic glutamate receptor 5; experiment: Positive allosteric modulation of human mGlu5 expressed in HEK293 cells assessed as glutamate-induced calcium mobilization relative to glutamate; assay type: functional, cell-based
Target sequence in this assay (P41594 21-1212 limits assumed): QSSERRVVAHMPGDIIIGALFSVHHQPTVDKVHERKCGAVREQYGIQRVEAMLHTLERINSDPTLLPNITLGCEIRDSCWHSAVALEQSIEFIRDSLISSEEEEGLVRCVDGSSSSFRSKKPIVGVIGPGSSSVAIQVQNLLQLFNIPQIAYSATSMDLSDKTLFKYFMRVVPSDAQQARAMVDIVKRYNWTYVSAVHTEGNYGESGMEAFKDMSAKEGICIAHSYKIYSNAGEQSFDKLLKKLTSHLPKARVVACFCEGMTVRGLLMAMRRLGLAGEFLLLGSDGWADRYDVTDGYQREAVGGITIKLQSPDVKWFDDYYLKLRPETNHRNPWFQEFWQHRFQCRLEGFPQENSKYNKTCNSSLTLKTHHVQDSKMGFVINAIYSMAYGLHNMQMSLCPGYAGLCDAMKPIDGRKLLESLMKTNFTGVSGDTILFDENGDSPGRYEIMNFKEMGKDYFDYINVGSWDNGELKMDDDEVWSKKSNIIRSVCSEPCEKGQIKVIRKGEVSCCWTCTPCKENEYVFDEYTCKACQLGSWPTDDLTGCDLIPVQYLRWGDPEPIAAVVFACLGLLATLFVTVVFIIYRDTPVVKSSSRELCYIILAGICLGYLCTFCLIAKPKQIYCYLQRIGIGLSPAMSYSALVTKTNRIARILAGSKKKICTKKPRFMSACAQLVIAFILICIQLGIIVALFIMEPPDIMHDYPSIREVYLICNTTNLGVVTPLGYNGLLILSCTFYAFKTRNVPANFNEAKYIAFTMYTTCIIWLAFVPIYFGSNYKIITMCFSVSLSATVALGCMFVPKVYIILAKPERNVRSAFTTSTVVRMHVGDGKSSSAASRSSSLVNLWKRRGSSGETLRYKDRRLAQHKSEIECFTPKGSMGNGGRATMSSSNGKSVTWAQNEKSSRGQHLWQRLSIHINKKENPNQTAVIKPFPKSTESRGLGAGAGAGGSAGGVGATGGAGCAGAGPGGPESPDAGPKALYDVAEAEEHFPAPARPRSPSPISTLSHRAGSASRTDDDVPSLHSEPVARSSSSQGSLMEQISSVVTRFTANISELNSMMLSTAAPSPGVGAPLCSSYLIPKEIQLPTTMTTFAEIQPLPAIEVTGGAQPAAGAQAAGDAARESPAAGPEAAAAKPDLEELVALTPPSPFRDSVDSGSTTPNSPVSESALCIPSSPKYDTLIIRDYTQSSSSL

[3] = biological target: Metabotropic glutamate receptor 3 (Homo sapiens, UniProt Q14832); experiment: Antagonist activity at human mGlu3 expressed in HEK293 cells assessed as inhibition of glutamate-induced calcium mobilization; assay type: functional, cell-based
[4] = biological target: Metabotropic glutamate receptor 1 (Homo sapiens, UniProt Q13255); experiment: Positive allosteric modulation of human mGlu1 receptor expressed in HEK293 cells assessed as calcium mobilization by fluorescence analysis; assay type: functional, cell-based
[5] = biological target: Metabotropic glutamate receptor 2 (Homo sapiens, UniProt Q14416); experiment: Positive allosteric modulation of human mGlu2 receptor expressed in HEK293 cells assessed as calcium mobilization by fluorescence analysis; assay type: functional, cell-based
[6] = biological target: Metabotropic glutamate receptor 7 (Homo sapiens, UniProt Q14831); experiment: Positive allosteric modulation of human mGlu7 receptor expressed in HEK293 cells assessed as calcium mobilization by fluorescence analysis; assay type: functional, cell-based
[7] = biological target: Metabotropic glutamate receptor 8 (Homo sapiens, UniProt O00222); experiment: Positive allosteric modulation of human mGlu8 receptor expressed in HEK293 cells assessed as calcium mobilization by fluorescence analysis; assay type: functional, cell-based
[8] = biological target: T2, Metabotropic glutamate receptor 4 (Homo sapiens, UniProt Q14833); experiment: Positive allosteric modulation of human mGlu4 receptor expressed in HEK293 cells assessed as calcium mobilization by fluorescence analysis; assay type: functional, cell-based
[9] = biological target: T2, Metabotropic glutamate receptor 4; experiment: Positive allosteric modulation of human mGlu4 receptor expressed in L929sA cells assessed as calcium mobilization by fluorescence analysis; assay type: functional, cell-based
[10] = biological target: T2, Metabotropic glutamate receptor 4; experiment: Positive allosteric modulation of human mGlu4 receptor expressed in HEK293 cells by [35S]-GTPgammaS binding assay; assay type: functional, cell-based
[11] = biological target: T2, Metabotropic glutamate receptor 4; experiment: Positive allosteric modulation of human mGlu4 receptor expressed in L929sA cells by [35S]-GTPgammaS binding assay; assay type: functional, cell-based
[12] = biological target: Metabotropic glutamate receptor 6 (Rattus norvegicus, UniProt P35349); experiment: Positive allosteric modulation of rat mGlu6 receptor expressed in CHO cells by [35S]-GTPgammaS binding assay; assay type: functional, cell-based
[13] = Percentage unbound in rat brain; assay type: ADME, tissue-based; conditions: brain tissue

T2 sequence (Q14833 whole entry): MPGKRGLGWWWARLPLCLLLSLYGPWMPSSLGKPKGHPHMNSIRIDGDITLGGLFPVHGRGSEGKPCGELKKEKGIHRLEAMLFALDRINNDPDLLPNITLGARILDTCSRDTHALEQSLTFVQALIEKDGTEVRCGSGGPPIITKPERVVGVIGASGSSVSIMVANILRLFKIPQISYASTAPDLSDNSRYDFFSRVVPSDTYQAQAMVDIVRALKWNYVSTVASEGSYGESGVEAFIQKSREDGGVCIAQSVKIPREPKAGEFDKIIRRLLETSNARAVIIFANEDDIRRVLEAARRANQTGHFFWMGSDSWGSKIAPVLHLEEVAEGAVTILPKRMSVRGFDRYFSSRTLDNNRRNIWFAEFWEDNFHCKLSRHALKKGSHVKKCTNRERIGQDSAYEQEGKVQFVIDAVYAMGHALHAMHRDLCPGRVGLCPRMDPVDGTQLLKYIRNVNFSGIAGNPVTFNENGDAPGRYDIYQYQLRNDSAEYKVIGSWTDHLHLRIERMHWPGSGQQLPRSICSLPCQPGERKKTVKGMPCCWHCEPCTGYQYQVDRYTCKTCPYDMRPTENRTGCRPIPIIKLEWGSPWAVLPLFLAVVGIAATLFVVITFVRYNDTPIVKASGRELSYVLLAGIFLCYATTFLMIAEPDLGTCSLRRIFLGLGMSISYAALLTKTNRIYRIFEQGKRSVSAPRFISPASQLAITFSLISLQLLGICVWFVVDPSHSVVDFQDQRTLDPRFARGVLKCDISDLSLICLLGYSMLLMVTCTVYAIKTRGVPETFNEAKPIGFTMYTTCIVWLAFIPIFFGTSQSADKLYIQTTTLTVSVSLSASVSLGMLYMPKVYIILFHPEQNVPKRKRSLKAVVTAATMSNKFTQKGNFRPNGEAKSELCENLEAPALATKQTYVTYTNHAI
Chain of Metabotropic glutamate receptor 3 (Q14832 whole entry): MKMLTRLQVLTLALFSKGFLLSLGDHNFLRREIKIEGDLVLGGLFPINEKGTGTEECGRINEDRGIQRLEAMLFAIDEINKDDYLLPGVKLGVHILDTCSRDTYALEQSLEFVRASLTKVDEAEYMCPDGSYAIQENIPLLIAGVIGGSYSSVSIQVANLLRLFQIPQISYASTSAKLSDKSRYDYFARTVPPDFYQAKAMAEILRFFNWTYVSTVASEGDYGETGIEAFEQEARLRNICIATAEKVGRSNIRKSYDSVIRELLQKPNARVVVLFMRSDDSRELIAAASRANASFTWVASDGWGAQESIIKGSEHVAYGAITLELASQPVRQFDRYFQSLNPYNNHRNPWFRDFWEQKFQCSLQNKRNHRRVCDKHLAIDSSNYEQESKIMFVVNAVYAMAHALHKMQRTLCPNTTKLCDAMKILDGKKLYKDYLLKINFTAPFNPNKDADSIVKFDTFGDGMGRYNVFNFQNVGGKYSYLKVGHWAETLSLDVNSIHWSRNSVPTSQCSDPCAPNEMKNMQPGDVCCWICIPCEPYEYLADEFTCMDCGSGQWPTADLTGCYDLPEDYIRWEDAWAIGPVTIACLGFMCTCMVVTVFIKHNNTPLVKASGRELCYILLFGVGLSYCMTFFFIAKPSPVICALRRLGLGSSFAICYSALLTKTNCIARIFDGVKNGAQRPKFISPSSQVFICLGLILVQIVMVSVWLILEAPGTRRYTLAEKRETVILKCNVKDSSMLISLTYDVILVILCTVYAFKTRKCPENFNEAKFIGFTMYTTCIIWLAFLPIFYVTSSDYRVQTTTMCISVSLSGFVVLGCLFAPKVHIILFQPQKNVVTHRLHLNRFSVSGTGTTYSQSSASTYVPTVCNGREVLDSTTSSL
Chain of Metabotropic glutamate receptor 7 (Q14831 whole entry): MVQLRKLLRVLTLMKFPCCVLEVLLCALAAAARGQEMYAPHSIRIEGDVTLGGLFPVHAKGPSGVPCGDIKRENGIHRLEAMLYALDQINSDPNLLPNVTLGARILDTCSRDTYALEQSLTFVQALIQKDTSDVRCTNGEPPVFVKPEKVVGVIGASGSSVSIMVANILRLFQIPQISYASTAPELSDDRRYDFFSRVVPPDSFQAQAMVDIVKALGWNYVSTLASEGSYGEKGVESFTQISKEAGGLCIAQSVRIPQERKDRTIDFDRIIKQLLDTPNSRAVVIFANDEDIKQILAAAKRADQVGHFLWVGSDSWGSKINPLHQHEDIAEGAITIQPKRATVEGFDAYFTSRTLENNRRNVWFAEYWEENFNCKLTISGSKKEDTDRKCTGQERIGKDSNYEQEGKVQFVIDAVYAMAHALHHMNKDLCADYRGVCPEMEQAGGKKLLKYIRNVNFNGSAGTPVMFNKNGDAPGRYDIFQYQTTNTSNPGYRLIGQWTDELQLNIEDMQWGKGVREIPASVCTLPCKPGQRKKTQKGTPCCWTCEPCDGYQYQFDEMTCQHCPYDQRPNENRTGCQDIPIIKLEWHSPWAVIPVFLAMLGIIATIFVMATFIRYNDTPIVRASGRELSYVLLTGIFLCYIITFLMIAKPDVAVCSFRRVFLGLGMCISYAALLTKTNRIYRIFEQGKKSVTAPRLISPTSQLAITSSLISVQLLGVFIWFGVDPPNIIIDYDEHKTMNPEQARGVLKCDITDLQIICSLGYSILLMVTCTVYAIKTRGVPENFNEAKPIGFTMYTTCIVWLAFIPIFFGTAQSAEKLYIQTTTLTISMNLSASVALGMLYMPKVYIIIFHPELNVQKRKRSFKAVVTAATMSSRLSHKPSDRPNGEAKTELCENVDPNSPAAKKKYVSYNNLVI

Row | SMILES | EC50 ([1]; read-out: EC50) [µM] | Emax [2] [%] | other results
1 | Cc1c(COc2ccccc2)nn2c1C(=O)N(c1ccc(F)cc1)CC2 | 1.23 | 32 | 
2 | O=C1c2cc(COc3ccc(F)cn3)nn2CCN1c1ccc(F)cc1 | 7.94 | 52 | 
3 | O=C1c2cc(COc3ccccc3)nn2CCCN1c1ccc(F)cc1 | 0.22 | 79 | EC50 ([1]; read-out: pEC50 (converted)): 0.0871 µM; EC50 [3]: 0.54 µM
4 | O=C1c2cc(COc3cccc(F)c3)nn2CCN1c1ccc(F)cc1 | 0.1 | 70 | 
5 | O=C1c2cc(COc3ccccc3)nn2CCN1c1cccnc1 | 2.09 | 64 | 
6 | CC(Oc1ccccc1)c1cc2n(n1)CCN(c1ccc(F)cc1)C2=O (stereo not drawn) | 7.76 | 65 | 
7 | O=C1c2cc(COc3cccnc3)nn2CCN1c1ccc(F)cc1 | 3.98 | 69 | 
8 | O=C1c2cc(COc3ccccc3)nn2CCN1c1ccncc1 | 2.09 | 72 | 
9 | Cc1ccc(N2CCn3nc(COc4ccccc4)cc3C2=O)nc1 | 0.19 | 76 | 
10 | O=C1c2cc(OCc3ccccc3)nn2CCN1c1ccc(F)cc1 | 0.16 | 54 | EC50 [3]: 3.39 µM; EC50 [4]: > 10 µM; EC50 [5]: > 10 µM; EC50 [6]: > 10 µM; EC50 [7]: > 10 µM; EC50 [8]: > 10 µM; EC50 [9]: > 10 µM; EC50 [10]: > 10 µM; EC50 [11]: > 10 µM; EC50 [12]: > 10 µM; fraction unbound [13]: 0.065
11 | O=C1c2cc(COc3ccncc3)nn2CCN1c1ccc(F)cc1 | 0.69 | 69 | 
12 | O=C1c2cc(COc3ccccc3)nn2CCN1c1ccccn1 | 0.76 | 69 | 
13 | O=C1c2cc(COc3ccccc3F)nn2CCN1c1ccc(F)cc1 | 0.15 | 66 | 
14 | O=C1c2cc(COc3ccccn3)nn2CCN1c1ccc(F)cc1 | 0.49 | 68 | EC50 [3]: 0.29 µM
15 | O=C1c2c(Cl)c(COc3ccccc3)nn2CCN1c1ccc(F)cc1 | > 30 |  | 
